Laboratory results: patent US20110152313A1 (MACQUARIE UNIVERSITY, priority 2008, published 2011)

Experiments:
Assay in all cases: kinase binding screen (kinase-tagged T7 phage, qPCR), % Ctrl
[1] = biological target: AAK1 (Homo sapiens, UniProt Q2M2I8)
Summary of the method: (§1)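 Kinase-tagged T7 phage lysates were prepared in E. coli (MOI 0.4, 32° C until lysis), then exposed to ligand-bearing beads and test compound at a fixed concentration. Kinase remaining bound was eluted and measured by qPCR.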

[2] = biological target: CAMK2D (Homo sapiens, UniProt Q13557)
CAMK2D, sequence (Q13557 whole entry): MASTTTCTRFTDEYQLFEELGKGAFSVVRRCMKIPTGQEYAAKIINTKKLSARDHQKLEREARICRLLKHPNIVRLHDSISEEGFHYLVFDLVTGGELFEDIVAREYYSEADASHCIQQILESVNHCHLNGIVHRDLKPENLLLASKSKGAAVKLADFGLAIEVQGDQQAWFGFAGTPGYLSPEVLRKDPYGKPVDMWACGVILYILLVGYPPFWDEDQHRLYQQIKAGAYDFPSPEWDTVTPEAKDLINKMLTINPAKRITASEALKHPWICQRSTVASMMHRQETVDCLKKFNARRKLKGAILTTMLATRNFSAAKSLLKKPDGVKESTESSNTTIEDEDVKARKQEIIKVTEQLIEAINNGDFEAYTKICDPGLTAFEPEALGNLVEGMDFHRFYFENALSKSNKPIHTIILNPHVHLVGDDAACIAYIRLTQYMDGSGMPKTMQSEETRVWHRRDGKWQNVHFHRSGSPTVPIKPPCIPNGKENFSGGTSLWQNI
Summary of the method: as §1

[3] = biological target: CAMKK2 (Homo sapiens, UniProt Q96RR4)
CAMKK2, sequence (Q96RR4 whole entry): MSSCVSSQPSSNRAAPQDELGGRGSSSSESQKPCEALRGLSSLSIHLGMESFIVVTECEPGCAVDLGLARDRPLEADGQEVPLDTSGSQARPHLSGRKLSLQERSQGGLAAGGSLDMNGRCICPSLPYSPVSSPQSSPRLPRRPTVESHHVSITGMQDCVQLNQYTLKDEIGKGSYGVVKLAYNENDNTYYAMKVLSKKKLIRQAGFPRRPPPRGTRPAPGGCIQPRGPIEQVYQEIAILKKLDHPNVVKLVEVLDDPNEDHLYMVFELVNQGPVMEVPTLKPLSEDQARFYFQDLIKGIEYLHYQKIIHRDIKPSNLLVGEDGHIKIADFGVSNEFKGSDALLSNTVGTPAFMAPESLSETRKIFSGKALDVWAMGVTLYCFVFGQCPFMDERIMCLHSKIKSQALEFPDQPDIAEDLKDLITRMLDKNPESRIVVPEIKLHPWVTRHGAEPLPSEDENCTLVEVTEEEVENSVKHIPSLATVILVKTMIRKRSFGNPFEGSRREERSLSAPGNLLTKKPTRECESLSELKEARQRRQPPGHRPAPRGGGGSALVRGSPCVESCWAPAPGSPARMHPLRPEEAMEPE
Summary of the method: as §1

[4] = biological target: IRAK1 (Homo sapiens, UniProt P51617)
IRAK1, sequence (P51617 whole entry, species assumed): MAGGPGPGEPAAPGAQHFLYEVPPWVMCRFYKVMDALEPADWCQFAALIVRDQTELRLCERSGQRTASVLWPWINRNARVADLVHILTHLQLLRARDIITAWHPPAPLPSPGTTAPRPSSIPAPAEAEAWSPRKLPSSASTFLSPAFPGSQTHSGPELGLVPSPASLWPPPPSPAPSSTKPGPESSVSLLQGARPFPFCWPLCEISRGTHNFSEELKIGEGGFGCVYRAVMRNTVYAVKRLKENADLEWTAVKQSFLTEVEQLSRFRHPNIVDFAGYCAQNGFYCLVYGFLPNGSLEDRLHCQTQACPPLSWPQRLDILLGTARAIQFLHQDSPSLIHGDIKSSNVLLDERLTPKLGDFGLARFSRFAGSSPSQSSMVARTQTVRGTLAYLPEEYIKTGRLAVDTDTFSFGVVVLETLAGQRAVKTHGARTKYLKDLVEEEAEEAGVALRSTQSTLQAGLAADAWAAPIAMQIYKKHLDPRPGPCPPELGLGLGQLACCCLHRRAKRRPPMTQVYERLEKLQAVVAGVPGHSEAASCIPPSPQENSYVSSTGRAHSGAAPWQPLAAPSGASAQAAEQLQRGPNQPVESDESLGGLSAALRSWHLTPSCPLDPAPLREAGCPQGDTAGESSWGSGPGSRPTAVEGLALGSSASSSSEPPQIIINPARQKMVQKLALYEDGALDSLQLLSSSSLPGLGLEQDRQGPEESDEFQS
Summary of the method: as §1

[5] = biological target: T1, IRAK3 (Homo sapiens, UniProt Q9Y616)
T1 sequence (Q9Y616 1-596): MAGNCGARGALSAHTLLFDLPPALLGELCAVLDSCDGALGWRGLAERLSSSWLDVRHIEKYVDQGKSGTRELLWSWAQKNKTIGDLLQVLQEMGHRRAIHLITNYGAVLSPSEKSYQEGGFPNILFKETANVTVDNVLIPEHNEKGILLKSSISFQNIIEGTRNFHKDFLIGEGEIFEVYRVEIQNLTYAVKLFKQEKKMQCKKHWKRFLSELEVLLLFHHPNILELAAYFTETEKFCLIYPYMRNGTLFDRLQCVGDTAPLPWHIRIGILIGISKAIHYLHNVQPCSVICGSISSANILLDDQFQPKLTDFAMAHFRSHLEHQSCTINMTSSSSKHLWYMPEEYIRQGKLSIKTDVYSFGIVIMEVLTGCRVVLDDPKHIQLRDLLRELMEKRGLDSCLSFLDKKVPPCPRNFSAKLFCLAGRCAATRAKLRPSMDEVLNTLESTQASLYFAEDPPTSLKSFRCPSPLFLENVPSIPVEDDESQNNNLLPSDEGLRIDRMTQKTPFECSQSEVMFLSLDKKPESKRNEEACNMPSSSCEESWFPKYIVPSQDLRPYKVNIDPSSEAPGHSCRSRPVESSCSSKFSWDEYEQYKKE
Summary of the method: as §1

[6] = biological target: T2, MAP3K2 (Homo sapiens, UniProt Q9Y2U5)
T2 sequence (Q9Y2U5 1-619): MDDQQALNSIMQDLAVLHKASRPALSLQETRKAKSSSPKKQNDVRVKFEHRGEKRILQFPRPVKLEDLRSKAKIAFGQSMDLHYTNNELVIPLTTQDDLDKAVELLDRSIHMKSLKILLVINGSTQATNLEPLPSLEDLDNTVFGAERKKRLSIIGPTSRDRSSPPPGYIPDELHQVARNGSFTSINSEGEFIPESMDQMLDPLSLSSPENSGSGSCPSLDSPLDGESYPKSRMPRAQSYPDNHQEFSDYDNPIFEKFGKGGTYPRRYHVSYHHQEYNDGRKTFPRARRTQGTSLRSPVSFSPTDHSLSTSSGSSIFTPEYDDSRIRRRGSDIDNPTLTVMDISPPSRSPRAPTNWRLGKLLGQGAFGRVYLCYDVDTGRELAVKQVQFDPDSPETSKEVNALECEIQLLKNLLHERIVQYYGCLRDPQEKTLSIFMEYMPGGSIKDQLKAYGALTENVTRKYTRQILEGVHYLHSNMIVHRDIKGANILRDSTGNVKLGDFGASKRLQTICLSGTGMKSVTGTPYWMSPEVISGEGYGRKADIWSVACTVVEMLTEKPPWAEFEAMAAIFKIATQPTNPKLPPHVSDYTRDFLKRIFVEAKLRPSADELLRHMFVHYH
Summary of the method: as §1

[7] = biological target: T3, PLK4 (Homo sapiens, UniProt O00444)
T3 sequence (O00444 1-970): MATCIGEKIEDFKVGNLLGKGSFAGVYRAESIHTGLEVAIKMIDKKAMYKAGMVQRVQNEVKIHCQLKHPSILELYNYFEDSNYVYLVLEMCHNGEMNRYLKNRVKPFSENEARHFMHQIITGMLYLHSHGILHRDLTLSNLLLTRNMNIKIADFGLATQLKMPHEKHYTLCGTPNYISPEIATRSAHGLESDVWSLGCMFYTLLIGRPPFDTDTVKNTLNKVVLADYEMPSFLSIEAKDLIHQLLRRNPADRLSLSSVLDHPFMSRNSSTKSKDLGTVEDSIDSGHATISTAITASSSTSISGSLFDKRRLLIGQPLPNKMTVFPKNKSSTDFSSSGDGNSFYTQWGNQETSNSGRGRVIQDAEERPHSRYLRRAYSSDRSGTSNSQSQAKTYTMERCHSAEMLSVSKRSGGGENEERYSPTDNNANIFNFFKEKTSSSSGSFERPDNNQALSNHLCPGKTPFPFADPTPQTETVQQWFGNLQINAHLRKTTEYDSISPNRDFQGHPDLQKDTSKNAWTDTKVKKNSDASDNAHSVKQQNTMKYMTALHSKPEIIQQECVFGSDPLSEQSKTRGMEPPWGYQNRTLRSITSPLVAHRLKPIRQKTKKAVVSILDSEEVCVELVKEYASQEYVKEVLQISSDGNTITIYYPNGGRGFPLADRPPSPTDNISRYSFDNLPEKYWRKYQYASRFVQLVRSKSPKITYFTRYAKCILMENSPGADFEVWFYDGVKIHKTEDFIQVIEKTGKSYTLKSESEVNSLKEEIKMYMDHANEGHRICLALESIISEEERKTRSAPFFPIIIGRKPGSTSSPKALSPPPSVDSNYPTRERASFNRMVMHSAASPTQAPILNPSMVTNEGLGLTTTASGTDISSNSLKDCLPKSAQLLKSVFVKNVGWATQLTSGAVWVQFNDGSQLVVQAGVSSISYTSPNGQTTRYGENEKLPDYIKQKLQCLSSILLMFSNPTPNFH
Summary of the method: as §1

[8] = biological target: RPS6KA1(Kin.Dom.2-C-terminal) (Homo sapiens, UniProt Q15418)
RPS6KA1(Kin.Dom.2-C-terminal), sequence (Q15418 418-675 limits assumed, species assumed): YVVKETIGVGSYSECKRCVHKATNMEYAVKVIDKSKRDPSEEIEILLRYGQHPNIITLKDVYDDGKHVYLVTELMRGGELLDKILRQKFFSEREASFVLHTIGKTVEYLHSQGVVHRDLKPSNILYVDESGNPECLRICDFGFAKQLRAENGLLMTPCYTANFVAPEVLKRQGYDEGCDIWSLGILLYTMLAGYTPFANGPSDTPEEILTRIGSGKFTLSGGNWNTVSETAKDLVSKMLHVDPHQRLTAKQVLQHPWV
Summary of the method: as §1

AAK1, sequence (Q2M2I8 whole entry): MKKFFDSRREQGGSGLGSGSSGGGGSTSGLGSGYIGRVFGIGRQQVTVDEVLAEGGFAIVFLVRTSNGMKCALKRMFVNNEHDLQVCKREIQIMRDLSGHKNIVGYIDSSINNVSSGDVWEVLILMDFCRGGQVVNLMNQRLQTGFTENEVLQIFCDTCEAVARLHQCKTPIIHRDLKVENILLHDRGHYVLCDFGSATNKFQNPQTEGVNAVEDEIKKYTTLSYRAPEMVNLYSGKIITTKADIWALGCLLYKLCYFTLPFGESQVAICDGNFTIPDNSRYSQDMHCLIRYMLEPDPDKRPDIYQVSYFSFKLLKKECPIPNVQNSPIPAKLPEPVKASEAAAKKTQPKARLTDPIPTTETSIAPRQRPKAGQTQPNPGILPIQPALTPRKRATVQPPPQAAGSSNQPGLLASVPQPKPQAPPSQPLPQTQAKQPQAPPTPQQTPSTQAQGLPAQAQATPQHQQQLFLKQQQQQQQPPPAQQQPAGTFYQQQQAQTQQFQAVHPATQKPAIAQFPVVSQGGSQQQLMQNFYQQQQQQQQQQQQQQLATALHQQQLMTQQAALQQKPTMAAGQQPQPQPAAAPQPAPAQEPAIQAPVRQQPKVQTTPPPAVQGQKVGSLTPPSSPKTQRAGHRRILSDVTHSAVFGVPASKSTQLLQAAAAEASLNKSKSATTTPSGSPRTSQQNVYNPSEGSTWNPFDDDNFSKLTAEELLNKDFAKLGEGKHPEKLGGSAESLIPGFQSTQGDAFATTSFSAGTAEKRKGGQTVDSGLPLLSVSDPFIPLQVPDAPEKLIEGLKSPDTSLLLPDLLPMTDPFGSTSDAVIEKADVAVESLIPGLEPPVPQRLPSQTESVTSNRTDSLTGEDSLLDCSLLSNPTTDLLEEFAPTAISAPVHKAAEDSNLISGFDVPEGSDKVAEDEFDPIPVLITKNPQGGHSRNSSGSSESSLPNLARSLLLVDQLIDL

Row | SMILES | remaining activity at 1 µM [1] | remaining activity at 1 µM [2] | remaining activity at 1 µM [3] | remaining activity at 1 µM [4] | remaining activity at 1 µM [5] | remaining activity at 1 µM [6] | remaining activity at 1 µM [7] | remaining activity at 1 µM [8] | remaining activity at 10 µM ([1]; 10 μM) | remaining activity at 10 µM ([2]; 10 μM) | remaining activity at 10 µM ([3]; 10 μM) | remaining activity at 10 µM ([4]; 10 μM) | remaining activity at 10 µM ([5]; 10 μM) | remaining activity at 10 µM ([6]; 10 μM) | remaining activity at 10 µM ([7]; 10 μM) | remaining activity at 10 µM ([8]; 10 μM)
1 | Nc1nc2c(-c3ccccn3)nccc2[nH]1 [drawing 35, 4-(pyrid-2-yl)-1H-imidazo[4,5-c]pyridin-2-amine] | 27% | 41% | 35% | 52% | 88% | 54% | 55% | 33% | – | – | – | – | – | – | – | –
2 | Nc1nc2c(-c3cc(Br)c(Br)[nH]3)nccc2[nH]1 [Ageladine A, ageladine A, reference compound] | 90% | 100% | 90% | 55% | 85% | 73% | 81% | 20% | 83% | 82% | 83% | 35% | 51% | 70% | 65% | 22%
3 | Nc1nc2c(-c3cnc4ccccc4c3)nccc2[nH]1 [drawing 36, 4-(quinolin-3-yl)-1H-imidazo[4,5-c]pyridin-2-amine] | 83% | 100% | 100% | 89% | 56% | 81% | 100% | 92% | – | – | – | – | – | – | – | –
